# Source: the supplement of paper PMC10307832
# Key:
# Experiment in all cases: relative viability (nuclei count vs DMSO), 5 days (fraction); higher = more cells survive
# Kobe2602 + Pictilisib = compound: C1=CC(=CC=C1NC(=S)NNC2=C(C=C(C=C2[N+](=O)[O-])C(F)(F)F)[N+](=O)[O-])F [Kobe2602] + CS(=O)(=O)N1CCN(Cc2cc3nc(-c4cccc5[nH]ncc45)nc(N4CCOCC4)c3s2)CC1 [Pictilisib] (partner 1 µM)
# Method in brief: (§1)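 Relative viability is defined as nuclei in treated wells over nuclei in vehicle wells. Duplicate plates were run and medians reported. Lung cancer cell lines in 1536-well plates were dosed by pin tool one day after seeding, with one drug or with a fixed anchor-drug dose plus five library-drug doses (not always all listed) in √10 steps, and nuclei were counted after 5 days.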
# Zosuquidar + Linsitinib = compound: O[C@@H](COc1cccc2ncccc12)CN1CCN([C@@H]2c3ccccc3[C@@H]3[C@H](c4ccccc42)C3(F)F)CC1 [Zosuquidar] + C[C@]1(O)C[C@@H](c2nc(-c3ccc4ccc(-c5ccccc5)nc4c3)c3c(N)nccn32)C1 [Linsitinib] (partner 1 µM)
# Method in brief: as §1
# Zosuquidar + Navitoclax = compound: O[C@@H](COc1cccc2ncccc12)CN1CCN([C@@H]2c3ccccc3[C@@H]3[C@H](c4ccccc42)C3(F)F)CC1 [Zosuquidar] + CC1(C)CCC(c2ccc(Cl)cc2)=C(CN2CCN(c3ccc(C(=O)NS(=O)(=O)c4ccc(N[C@H](CCN5CCOCC5)CSc5ccccc5)c(S(=O)(=O)C(F)(F)F)c4)cc3)CC2)C1 [Navitoclax] (partner 0.5 µM)
# Method in brief: as §1
# Cabozantinib + Lapatinib = compound: COc1cc2nccc(Oc3ccc(NC(=O)C4(C(=O)Nc5ccc(F)cc5)CC4)cc3)c2cc1OC [Cabozantinib] + CS(=O)(=O)CCNCc1ccc(-c2ccc3ncnc(Nc4ccc(OCc5cccc(F)c5)c(Cl)c4)c3c2)o1 [Lapatinib] (partner 2 µM)
# Method in brief: as §1
Cell Line,relative viability (Kobe2602 + Pictilisib; first compound 0.2 µM),relative viability (Kobe2602 + Pictilisib; first compound 0.6325 µM),relative viability (Kobe2602 + Pictilisib; first compound 2 µM),relative viability (Kobe2602 + Pictilisib; first compound 6.325 µM),relative viability (Kobe2602 + Pictilisib; first compound 20 µM),relative viability (Zosuquidar + Linsitinib; first compound 0.01 µM),relative viability (Zosuquidar + Linsitinib; first compound 0.03162 µM),relative viability (Zosuquidar + Linsitinib; first compound 0.1 µM),relative viability (Zosuquidar + Linsitinib; first compound 0.3162 µM),relative viability (Zosuquidar + Linsitinib; first compound 1 µM),relative viability (Zosuquidar + Navitoclax; first compound 0.01 µM),relative viability (Zosuquidar + Navitoclax; first compound 0.03162 µM),relative viability (Zosuquidar + Navitoclax; first compound 0.1 µM),relative viability (Zosuquidar + Navitoclax; first compound 0.3162 µM),relative viability (Zosuquidar + Navitoclax; first compound 1 µM),relative viability (Cabozantinib + Lapatinib; first compound 0.06325 µM),relative viability (Cabozantinib + Lapatinib; first compound 0.2 µM),relative viability (Cabozantinib + Lapatinib; first compound 0.6325 µM),relative viability (Cabozantinib + Lapatinib; first compound 2 µM),relative viability (Cabozantinib + Lapatinib; first compound 0.02 µM)
LK-2,0.642,0.597,0.534,0.542,0.609,0.663,0.745,0.515,0.722,0.574,0.989,0.931,0.875,0.954,0.847,1.15,0.929,0.948,0.856,
NCI-H1755,0.445,0.476,0.421,0.439,0.435,0.948,0.977,0.958,1.01,0.965,0.988,1.01,0.954,1.07,0.949,1.12,1.05,0.964,0.932,1.02
A-427,0.742,0.925,0.741,0.774,0.98,1.09,1.14,0.971,1.15,1.11,1.01,0.714,0.873,1.02,0.974,1.11,0.963,1.02,1.08,1.1
PC-3 [JPC-3],0.873,0.74,0.795,0.781,0.671,0.945,0.956,0.817,0.929,0.981,0.783,0.775,0.755,0.792,0.755,0.473,,0.407,0.391,0.398
LOU-NH91,0.553,0.49,0.468,0.528,0.566,0.937,0.927,0.736,1.03,0.913,0.624,0.695,0.571,0.739,0.68,0.776,0.781,0.711,0.712,0.687
BEN,0.607,0.581,0.733,0.523,0.645,1.05,0.896,0.766,0.859,0.936,0.523,0.0629,0.0532,0.0672,0.0608,0.814,0.846,0.67,0.63,0.702
NCI-H2085,0.484,0.448,0.483,0.466,0.489,0.867,0.982,0.919,0.901,0.995,1.13,1.06,1.06,1.2,1.14,0.881,0.676,0.728,0.643,0.793
LC-2-ad,0.614,0.54,0.459,0.441,0.477,0.776,0.857,0.873,0.797,0.895,0.452,0.607,0.407,0.534,0.406,1.04,0.876,0.622,0.253,0.938
NCI-H727,0.314,0.356,0.473,0.331,0.385,0.328,0.343,0.335,0.237,0.274,0.426,0.528,0.328,0.454,0.391,1.27,0.702,0.806,0.783,0.61
NCI-H1792,0.24,0.337,0.389,0.252,0.303,0.545,0.438,0.431,0.572,0.579,0.603,0.621,0.53,0.635,0.359,1.13,0.846,0.862,0.85,0.78
EPLC-272H,0.321,0.458,0.294,0.345,0.374,1.24,1.22,1.1,1.12,1.09,1.08,1.28,1.1,1.07,0.984,1.22,0.877,0.97,0.701,0.899
EKVX,0.461,0.422,0.386,0.412,0.426,1.05,1.06,0.731,0.922,1.05,0.93,0.938,0.842,1.03,0.899,0.207,0.203,0.21,0.191,0.172
NCI-H1666,0.345,0.5,,0.276,0.471,0.759,0.832,0.768,0.817,0.78,0.906,1,1.03,1.02,0.818,0.621,0.677,0.712,0.595,0.693
HCC-15,0.816,0.848,0.738,0.78,0.707,0.949,0.794,0.913,0.901,0.901,0.723,0.702,0.683,0.665,0.667,0.879,0.783,0.843,0.965,0.85
NCI-H2405,0.459,0.41,0.413,0.425,0.536,0.984,0.878,0.784,0.969,0.983,1.01,0.853,0.723,1.07,0.894,1.16,1.2,1.1,1.02,
NCI-H1915,0.959,0.993,0.994,0.989,1.02,1.14,1.07,1.09,1.12,1.1,0.756,0.79,0.796,0.802,0.743,0.987,0.967,0.999,0.989,0.946

Cell Line,relative viability (Kobe2602 + Pictilisib; first compound 0.2 µM),relative viability (Kobe2602 + Pictilisib; first compound 0.6325 µM),relative viability (Kobe2602 + Pictilisib; first compound 2 µM),relative viability (Kobe2602 + Pictilisib; first compound 6.325 µM),relative viability (Kobe2602 + Pictilisib; first compound 20 µM),relative viability (Zosuquidar + Linsitinib; first compound 0.01 µM),relative viability (Zosuquidar + Linsitinib; first compound 0.03162 µM),relative viability (Zosuquidar + Linsitinib; first compound 0.1 µM),relative viability (Zosuquidar + Linsitinib; first compound 0.3162 µM),relative viability (Zosuquidar + Linsitinib; first compound 1 µM),relative viability (Zosuquidar + Navitoclax; first compound 0.01 µM),relative viability (Zosuquidar + Navitoclax; first compound 0.03162 µM),relative viability (Zosuquidar + Navitoclax; first compound 0.1 µM),relative viability (Zosuquidar + Navitoclax; first compound 0.3162 µM),relative viability (Zosuquidar + Navitoclax; first compound 1 µM),relative viability (Cabozantinib + Lapatinib; first compound 0.06325 µM),relative viability (Cabozantinib + Lapatinib; first compound 0.2 µM),relative viability (Cabozantinib + Lapatinib; first compound 0.6325 µM),relative viability (Cabozantinib + Lapatinib; first compound 2 µM),relative viability (Cabozantinib + Lapatinib; first compound 0.02 µM)
NCI-H647,0.432,0.483,0.455,0.425,0.567,1.16,1.19,1.3,1.28,1.24,1.02,1.1,0.986,1.14,1.06,1.45,1.15,1.13,0.734,1.29
HCC-366,0.0894,0.176,0.0839,0.141,0.211,0.641,0.682,0.641,0.597,0.783,0.97,1.18,1.02,1.01,1.09,1.07,1.05,1.13,0.957,1.08
NCI-H2087,0.86,0.832,0.78,0.841,0.95,0.916,1.03,1.01,0.987,0.89,0.968,0.994,0.965,1.18,1.08,1.18,1.02,1.01,0.982,1.09
SK-LU-1,0.613,0.727,0.624,0.578,0.513,1.1,1.3,1.39,1.22,0.874,0.82,0.789,1.44,0.974,0.586,0.539,0.929,0.774,0.634,
HOP-62,0.72,1.09,0.717,0.783,0.782,0.834,1.12,1.13,0.886,0.991,0.825,1.13,0.939,0.924,0.975,1.3,1.19,1.2,1.14,1.05
NCI-H2126,0.508,0.508,0.485,0.475,0.492,0.71,0.707,0.543,0.755,0.719,0.79,0.845,0.741,0.889,0.845,0.843,0.723,0.75,0.77,0.612
SW 1573,0.491,0.457,0.365,0.556,0.486,0.713,0.728,0.793,0.925,0.859,0.974,0.896,1.07,1.05,1.02,1.03,1.23,1.23,1.04,1.06
H3255,0.533,0.451,0.509,0.486,0.509,1.07,0.945,0.783,1.1,0.951,0.513,0.492,0.537,0.608,0.436,0.234,,0.366,0.217,0.182
EMC-BAC-2,0.503,0.6,0.548,0.569,0.558,0.803,0.843,0.782,0.858,0.797,1.19,0.795,1.05,1.18,1.12,0.927,0.88,0.879,0.973,0.841
CAL-12T,0.59,0.556,0.394,0.387,0.548,0.776,0.979,0.549,0.894,0.841,1.38,1.35,1.17,1.45,1.2,0.653,0.701,,0.529,0.708
NCI-H838,0.393,0.489,0.426,0.422,0.418,1.01,0.981,1.02,1.09,1.06,1.25,1.22,1.16,1.26,1.17,0.997,0.895,0.881,0.877,1.01
NCI-H1944,0.344,0.381,0.353,0.349,0.374,1.21,1.17,1.08,1.09,1.17,1.06,1.02,1,1.18,0.945,0.858,0.793,0.756,0.884,
EBC-1,0.365,0.556,0.402,0.378,0.437,0.956,0.923,0.747,1.16,0.845,0.451,0.417,0.466,0.493,0.417,0.17,0.242,0.195,0.213,0.192
NCI-H1437,0.412,0.501,0.471,0.424,0.363,1.06,1.01,0.936,1.08,1.05,1.08,1.1,1.06,1.15,1.15,0.91,0.798,0.823,0.779,0.892
RERF-LC-KJ,0.589,0.643,0.512,0.506,0.493,0.858,0.903,0.876,0.932,0.906,0.99,0.853,0.947,1.11,0.844,0.894,0.784,0.776,0.815,0.904
